From article PMC3211509 (Nanoscale Research Letters, 2011)

Assays:
[1] = test system: human vascular smooth muscle (VSM) cell; set-up: method as in PMID 11090543, PMID 11842228; conditions: cited from earlier work
[2] = test system: spontaneously hypertensive rats; set-up: method as in printed; conditions: reported, ref not given; cited from earlier work
[3] = set-up: method as in earlier work; conditions: oral, 1 compartment, first-order elimination ref 15; cited from earlier work
[4] = Drug absorbed in vivo after oral dose (Wagner-Nelson equation); conditions: rat, 30 mg/kg, at Cmax
Description: A model based on the Wagner-Nelson (W-N) equation was established in-house and was used to calculate the drug absorbed to further assess the amount of drug absorbed as a function of time. The utilization of the W-N equation allows us to obtain all the drug that is absorbed (including excreted) at different time points. This allowed us to estimate the relationship and the impact on the absorption on the surface area changes of the drug. [drawing 2] [drawing 3]
where A is the drug absorbed, V is the volume of distribution, Cp is the plasma concentration, K is the elimination rate constant, and t is time.
In order to understand the degree of improvement provided by an oral nanosuspension formulation, simulations were performed using a Wagner-Nelson equation-based model that was established in-house in order to assess the amount of drug absorbed (dA) as a function of time. In this model, the stomach empting time was taking into consideration. […] The unit surface area by weight (A/W) was calculated to estimate the surface area reduction after the absorption took place, and the total residual surface area (RA) was calculated for each time point. The absorption efficiency (AE) was calculated by taking the ratio of the amount of drug available and was divided by the RA (AE = W/RA), and the absorption constant (K) was calculated as AE/δT. […]

[5] = set-up: method as in printed; conditions: ref not given; cited from earlier work

Drug absorbed, In vivo (Wagner-Nelson equation) [4]: 1.1 mg
SMILES: O=C(NC1CCCCC1)NC1CCCCC1 [DCU, 1,3-Dicyclohexylurea]
human VSM cell proliferation [1]: inhibits human vascular smooth muscle (VSM) cell proliferation in a dose-dependent manner | effect on systemic blood pressure [2]: lower systemic blood pressure | K01 (absorption rate constant) [3]: 26.3 h⁻¹ | K10 (elimination rate constant) [3]: 0.277 h⁻¹ | Vf [3]: 5.8 L | free fraction in plasma (unbound) [5]: 3%
